Assay results from US20240166630A1, “INDOLE DERIVATIVES AS SEROTONERGIC AGENTS USEFUL FOR THE TREATMENT OF DISORDERS RELATED THERETO” (Mindset Pharma Inc., priority 2021, published 2024).
Values joined by “and” are separate entries in the source; they are usually repeats but may differ in a detail not shown here. Equal entries are not always repeated. Where two headings read alike, the source gives them in different places.

Experiment: In vivo pharmacokinetics in male C57BL/6 mice
Set-up: species or system mouse
Procedure: Animals: Male C57BL/6 mice (25-30 g) from Charles River Labs were acclimatized for a minimum of 5 days prior to dosing. Body weights were recorded on the day of dosing.
Food restriction: Animals dosed p.o. were deprived of food overnight and fed ˜2 h following dosing.
Dosing: Formulations were administered intravenously (i.v.) via the tail vein or orally (p.o.) by gavage with disposable feeding needles.
Sample collection: Serial blood samples was collected via tail snip. Terminal blood samples was collected under isoflurane anesthesia by cardiac puncture.
Sample processing/storage: All blood samples were transferred into K2EDTA tubes on wet ice and centrifuged within 5 min (3200× g for 5 min at 4° C.) to obtain plasma. Plasma was stored at −80° C. until analysis.
Instrumentation: AB Sciex QTRAP 4000 or 6500 MS/MS system equipped with an LC system with a binary pump, a solvent degasser, a thermostatted column compartment and a multiplate autosampler.
5. PK Analysis • i. Analysis software: Phoenix® WinNonlin® 8.2 (Pharsight, Certara, Mountainview, CA) • ii. Analysis methods: non-compartmental analysis, linear up/log down trapezoidal rule • iii. PK parameters: C0, t1/2, AUC0-tlast. AUC0-∞, CL, Vss, MRT, tmax(po), Cmax(po), F, as appropriate

[1] = 9.92 mg/kg i.v., individual animals M10-M12
[2] = 9.92 mg/kg p.o., individual animals M13-M15
[3] = 9.92 mg/kg s.c., individual animals M16-M18

For [2H]C([2H])(c1c[nH]c2ccccc12)[C@H]1CCCN1C([2H])([2H])[2H] [I-B-1, (R)-3-((1-(methyl-d3)pyrrolidin-2-yl)methyl-d2)-1H-indole], the AUC0-tlast [1] was 3708 ng·h/mL and 4440 ng·h/mL, the AUC(0-inf) [1] was 3709 ng·h/mL and 4441 ng·h/mL and the “Apparent t1/2” value [1] was 2.16 h and 2.05 h. The C0 [1] was 3473 ng/mL and 3356 ng/mL, the CL [1] was 44.58 mL/min/kg and 37.23 mL/min/kg and the MRT0-inf [1] was 2.46 h and 2.57 h. For the same compound, the Vss [1] was 6.59 L/kg and 5.751 L/kg, the F (9.92 mg/kg p.o., Mean ± SD) was 58.2 ± 18.4% and the AUC0-tlast [2] was 2782 ng·h/mL and 2260 ng·h/mL. For the same compound, the AUC(0-inf) [2] was 3099 ng·h/mL, the Cmax [2] was 516 ng/mL and 342 ng/mL and the MRT0-inf [2] was 8.54 h. For the same compound, the tmax [2] was 1.00 h and 0.500 h, the F (9.92 mg/kg p.o., individual animals M13-M15, for M15 AUC0-tlast used) was 40.8% and 77.5% and 56.5% and the “Apparent t1/2” value (9.92 mg/kg p.o., individual animals, estimate may not be accurate) was 9.46 h. For the same compound, the F (9.92 mg/kg s.c., Mean ± SD) was 67.9 ± 6.24%, the AUC0-tlast [3] was 2833 ng·h/mL and 2429 ng·h/mL and the AUC(0-inf) [3] was 2834 ng·h/mL and 2431 ng·h/mL. For the same compound, the “Apparent t1/2” value [3] was 2.24 h and 2.56 h, the Cmax [3] was 1090 ng/mL and 950 ng/mL and the F [3] was 72.2% and 70.9% and 60.8%. The MRT0-inf [3] was 2.58 h, the tmax [3] was 0.500 h and the clearance (male, C57BL/6, mouse, plasma, iv, 9.92 mg/kg, 9.92 mg/kg i.v., Mean ± SD) was 41.7 mL/min/kg. It also gave an AUC(0-inf) (male, C57BL/6, mouse, plasma, iv, 9.92 mg/kg, 9.92 mg/kg i.v., Mean ± SD, read-out: AUC0-inf) of 4000 ± 389 ng·h/mL, an AUC(0-t) (male, C57BL/6, mouse, plasma, iv, 9.92 mg/kg, 9.92 mg/kg i.v., Mean ± SD, read-out: AUC0-tlast) of 4000 ± 389 ng·h/mL and a half-life (male, C57BL/6, mouse, plasma, iv, 9.92 mg/kg, 9.92 mg/kg i.v., Mean ± SD, read-out: Apparent t1/2 (converted)) of 2.17 ± 0.127 h. For the same compound, the C0 (male, C57BL/6, mouse, plasma, iv, 9.92 mg/kg, 9.92 mg/kg i.v., Mean ± SD, read-out: C0) was 3910 ± 868 ng/mL, the MRT inf (male, C57BL/6, mouse, plasma, iv, 9.92 mg/kg, 9.92 mg/kg i.v., Mean ± SD, read-out: MRT0-inf) was 2.43 ± 0.16 h and the Vd (male, C57BL/6, mouse, plasma, iv, 9.92 mg/kg, 9.92 mg/kg i.v., Mean ± SD, read-out: Vss) was 6.06 ± 0.464 L/kg. It also gave a clearance (male, C57BL/6, mouse, plasma, iv, 9.92 mg/kg, 9.92 mg/kg i.v., individual animals M10-M12) of 43 mL/min/kg, an AUC(0-inf) (male, C57BL/6, mouse, plasma, iv, 9.92 mg/kg, 9.92 mg/kg i.v., individual animals M10-M12, read-out: AUC0-inf) of 3850 ng·h/mL and an AUC(0-t) (male, C57BL/6, mouse, plasma, iv, 9.92 mg/kg, 9.92 mg/kg i.v., individual animals M10-M12, read-out: AUC0-tlast) of 3850 ng·h/mL. It also gave a half-life (male, C57BL/6, mouse, plasma, iv, 9.92 mg/kg, 9.92 mg/kg i.v., individual animals M10-M12, read-out: Apparent t1/2 (converted)) of 2.3 h, a C0 (male, C57BL/6, mouse, plasma, iv, 9.92 mg/kg, 9.92 mg/kg i.v., individual animals M10-M12, read-out: C0) of 4910 ng/mL and an MRT inf (male, C57BL/6, mouse, plasma, iv, 9.92 mg/kg, 9.92 mg/kg i.v., individual animals M10-M12, read-out: MRT0-inf) of 2.26 h. It also gave a Vd (male, C57BL/6, mouse, plasma, iv, 9.92 mg/kg, 9.92 mg/kg i.v., individual animals M10-M12, read-out: Vss) of 5.83 L/kg, an AUC(0-t) (male, C57BL/6, mouse, plasma, po, 9.92 mg/kg, 9.92 mg/kg p.o., Mean ± SD, read-out: AUC0-tlast) of 2170 ± 665 ng·h/mL and a Cmax (male, C57BL/6, mouse, plasma, po, 9.92 mg/kg, 9.92 mg/kg p.o., Mean ± SD, read-out: Cmax) of 389 ± 112 ng/mL. For the same compound, the tmax (male, C57BL/6, mouse, plasma, po, 9.92 mg/kg, 9.92 mg/kg p.o., Mean ± SD, read-out: tmax) was 0.25 h, the AUC(0-inf) (male, C57BL/6, mouse, plasma, po, 9.92 mg/kg, 9.92 mg/kg p.o., individual animals M13-M15, read-out: AUC0-inf) was 1630 ng·h/mL and the AUC(0-t) (male, C57BL/6, mouse, plasma, po, 9.92 mg/kg, 9.92 mg/kg p.o., individual animals M13-M15, read-out: AUC0-tlast) was 1460 ng·h/mL. For the same compound, the Cmax (male, C57BL/6, mouse, plasma, po, 9.92 mg/kg, 9.92 mg/kg p.o., individual animals M13-M15, read-out: Cmax) was 308 ng/mL, the MRT inf (male, C57BL/6, mouse, plasma, po, 9.92 mg/kg, 9.92 mg/kg p.o., individual animals M13-M15, read-out: MRT0-inf) was 8.91 h and the half-life (male, C57BL/6, mouse, plasma, po, 9.92 mg/kg, 9.92 mg/kg p.o., individual animals, estimate may not be accurate, read-out: Apparent t1/2 (converted)) was 9.66 h. The AUC(0-inf) (male, C57BL/6, mouse, plasma, po, 9.92 mg/kg, 9.92 mg/kg p.o., mean (n = 2), read-out: AUC0-inf) was 2360 ng·h/mL, the half-life (male, C57BL/6, mouse, plasma, po, 9.92 mg/kg, 9.92 mg/kg p.o., mean (n = 2), read-out: Apparent t1/2 (converted)) was 9.56 h and the MRT inf (male, C57BL/6, mouse, plasma, po, 9.92 mg/kg, 9.92 mg/kg p.o., mean (n = 2), read-out: MRT0-inf) was 8.72 h. It also gave an AUC(0-inf) (male, C57BL/6, mouse, plasma, sc, 9.92 mg/kg, 9.92 mg/kg s.c., Mean ± SD, read-out: AUC0-inf) of 2720 ± 249 ng·h/mL, an AUC(0-t) (male, C57BL/6, mouse, plasma, sc, 9.92 mg/kg, 9.92 mg/kg s.c., Mean ± SD, read-out: AUC0-tlast) of 2720 ± 250 ng·h/mL and a half-life (male, C57BL/6, mouse, plasma, sc, 9.92 mg/kg, 9.92 mg/kg s.c., Mean ± SD, read-out: Apparent t1/2 (converted)) of 2.3 ± 0.232 h. It also gave a Cmax (male, C57BL/6, mouse, plasma, sc, 9.92 mg/kg, 9.92 mg/kg s.c., Mean ± SD, read-out: Cmax) of 1240 ± 387 ng/mL, an MRT inf (male, C57BL/6, mouse, plasma, sc, 9.92 mg/kg, 9.92 mg/kg s.c., Mean ± SD, read-out: MRT0-inf) of 2.6 ± 0.186 h and a tmax (male, C57BL/6, mouse, plasma, sc, 9.92 mg/kg, 9.92 mg/kg s.c., Mean ± SD, read-out: tmax) of 0.25 h. It also gave an AUC(0-inf) (male, C57BL/6, mouse, plasma, sc, 9.92 mg/kg, 9.92 mg/kg s.c., individual animals M16-M18, read-out: AUC0-inf) of 2890 ng·h/mL, an AUC(0-t) (male, C57BL/6, mouse, plasma, sc, 9.92 mg/kg, 9.92 mg/kg s.c., individual animals M16-M18, read-out: AUC0-tlast) of 2880 ng·h/mL and a half-life (male, C57BL/6, mouse, plasma, sc, 9.92 mg/kg, 9.92 mg/kg s.c., individual animals M16-M18, read-out: Apparent t1/2 (converted)) of 2.1 h. It also gave a Cmax (male, C57BL/6, mouse, plasma, sc, 9.92 mg/kg, 9.92 mg/kg s.c., individual animals M16-M18, read-out: Cmax) of 1680 ng/mL, an MRT inf (male, C57BL/6, mouse, plasma, sc, 9.92 mg/kg, 9.92 mg/kg s.c., individual animals M16-M18, read-out: MRT0-inf) of 2.8 h and a tmax (male, C57BL/6, mouse, plasma, sc, 9.92 mg/kg, 9.92 mg/kg s.c., individual animals M16-M18, read-out: tmax) of 0.25 h.
